Reference: ChEMBL document CHEMBL1201862, “PubChem BioAssay data set” (2004)
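Where inhibition never reached the appropriate level, the endpoint shown equals the highest concentration tested. Otherwise, values were interpolated linearly from a five-concentration, 48-hour dose response in 96-well plates. At the GI50, growth is halved.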 Calls of active or inactive are those of the source. Rule as the data show it: active = GI50 up to about 1.1 µM and inactive = higher.

How the values were obtained:
Assay in all cases: NCI-60 cell line screen, 48 h
HOP-62 = system: HOP-62
ACHN = system: ACHN
NCI-H522 = system: NCI-H522
U-251 = system: U-251
OVCAR-4 = system: OVCAR-4
SK-MEL-28 = system: SK-MEL-28
SK-OV-3 = system: SK-OV-3
TK-10 = system: TK-10
Malme-3M = system: Malme-3M
OVCAR-8 = system: OVCAR-8
HL-60 = system: HL-60
SK-MEL-2 = system: SK-MEL-2
HOP-92 = system: HOP-92
LOX IMVI = system: LOX IMVI
K562 = system: K562
RPMI-8226 = system: RPMI-8226
NCI-H23 = system: NCI-H23
EKVX = system: EKVX
IGROV-1 = system: IGROV-1
OVCAR-5 = system: OVCAR-5

| Compound | GI50 (HOP-62) | GI50 (ACHN) | GI50 (NCI-H522) | GI50 (U-251) | GI50 (OVCAR-4) | GI50 (SK-MEL-28) | GI50 (SK-OV-3) | GI50 (TK-10) | GI50 (Malme-3M) | GI50 (OVCAR-8) | GI50 (HL-60) | GI50 (SK-MEL-2) | GI50 (HOP-92) | GI50 (LOX IMVI) | GI50 (K562) | GI50 (RPMI-8226) | GI50 (NCI-H23) | GI50 (EKVX) | GI50 (IGROV-1) | GI50 (OVCAR-5) |
| --- | --- | --- | --- | --- | --- | --- | --- | --- | --- | --- | --- | --- | --- | --- | --- | --- | --- | --- | --- | --- |
| COC(=O)c1ccc(NCc2cc(O)ccc2O)cc1O | 10.9 µM (inactive) | 9.68 µM (inactive) | 0.405 µM (active) | 11.9 µM (inactive) | 13.2 µM (inactive) | 16.4 µM (inactive) | 13.9 µM (inactive) | 16.7 µM (inactive) | 16.4 µM (inactive) | 3.29 µM (inactive) | 1.67 µM (inactive) | 16.4 µM (inactive) | 11.2 µM (inactive) | 13 µM (inactive) | 4.1 µM (inactive) | 1.17 µM (inactive) | 9.46 µM (inactive) | 13.5 µM (inactive) | 8.97 µM (inactive) | 16.7 µM (inactive) |
| NC(=O)/C=C/c1c[nH]c2nccnc12 | 2.94 µM (inactive) | 2.71 µM (inactive) | 7.13 µM (inactive) | 4.85 µM (inactive) | 4.09 µM (inactive) | 0.628 µM (active) | 3.95 µM (inactive) | 2.43 µM (inactive) | 0.726 µM (active) | 2.86 µM (inactive) | 2.26 µM (inactive) | 1.79 µM (inactive) | 3.52 µM (inactive) | 0.625 µM (active) | 0.966 µM (active) | 2.43 µM (inactive) | 0.678 µM (active) | 3.15 µM (inactive) | 3.83 µM (inactive) | 0.15 µM (active) |
| COc1ccc(N2C(=O)c3cc(C)cnc3S2(=O)=O)cc1 | > 100 µM (inactive) | > 100 µM (inactive) | > 100 µM (inactive) | > 100 µM (inactive) | > 100 µM (inactive) | > 100 µM (inactive) | > 100 µM (inactive) | > 100 µM (inactive) | > 100 µM (inactive) | > 100 µM (inactive) | > 100 µM (inactive) | > 100 µM (inactive) | > 100 µM (inactive) | > 100 µM (inactive) | > 100 µM (inactive) | > 100 µM (inactive) | > 100 µM (inactive) | > 100 µM (inactive) | > 100 µM (inactive) | > 100 µM (inactive) |
| COc1ccc(N2C(=O)C3c4[nH]c5ccccc5c4C4CCCCCCC4C3C2=O)cc1 (stereo not given) | 8.22 µM (inactive) | 6.38 µM (inactive) | 13.9 µM (inactive) | 4.06 µM (inactive) | 15.9 µM (inactive) | 18.8 µM (inactive) | 14.4 µM (inactive) | 20.1 µM (inactive) | 16.6 µM (inactive) | 3.8 µM (inactive) | 22.5 µM (inactive) | 26.2 µM (inactive) | 13.8 µM (inactive) | 5 µM (inactive) | 10.1 µM (inactive) | 50.4 µM (inactive) | 13.1 µM (inactive) | 14 µM (inactive) | 18.2 µM (inactive) | > 52.1 µM (inactive) |
| O=S(=O)(O)c1cc(O)c2c(O)c(/N=N/c3ccc(/C=C/c4ccc(/N=N/c5c(S(=O)(=O)O)cc6cc(S(=O)(=O)O)cc(O)c6c5O)cc4S(=O)(=O)O)c(S(=O)(=O)O)c3)c(S(=O)(=O)O)cc2c1 | > 100 µM (inactive) | > 100 µM (inactive) | > 100 µM (inactive) | > 100 µM (inactive) | > 100 µM (inactive) | > 100 µM (inactive) | > 100 µM (inactive) | > 100 µM (inactive) | > 100 µM (inactive) | > 100 µM (inactive) | > 100 µM (inactive) | > 100 µM (inactive) | 95.7 µM (inactive) | > 100 µM (inactive) | > 100 µM (inactive) | > 100 µM (inactive) | > 100 µM (inactive) | > 100 µM (inactive) | > 100 µM (inactive) | > 100 µM (inactive) |
